Source: patent publication US20260176279A1, “DUAL RAF AND TUBULIN INHIBITORS AND METHODS OF USE THEREOF” (Deciphera Pharmaceuticals, LLC, priority 2023, published 2026)
Read-outs that look alike come from different tables or passages of the source.

How the values were obtained:
B-Raf kinase = molecular target: T1, B-Raf kinase (Homo sapiens, UniProt P15056); test: Biochemical Assay for B-Raf (coupled pyruvate kinase/lactate dehydrogenase assay)
T1 construct: GST (N); purchased Sigma

C-Raf kinase = molecular target: T2, C-Raf kinase (Homo sapiens, UniProt P04049, Y340D/Y341D); test: Biochemical Assay for C-Raf (coupled pyruvate kinase/lactate dehydrogenase assay)
T2 construct: C-Raf residues 306-end; Y340D, Y341D with N-; GST (N); purchased Eurofins
T2 sequence (P04049 307-648 Y340D/Y341D): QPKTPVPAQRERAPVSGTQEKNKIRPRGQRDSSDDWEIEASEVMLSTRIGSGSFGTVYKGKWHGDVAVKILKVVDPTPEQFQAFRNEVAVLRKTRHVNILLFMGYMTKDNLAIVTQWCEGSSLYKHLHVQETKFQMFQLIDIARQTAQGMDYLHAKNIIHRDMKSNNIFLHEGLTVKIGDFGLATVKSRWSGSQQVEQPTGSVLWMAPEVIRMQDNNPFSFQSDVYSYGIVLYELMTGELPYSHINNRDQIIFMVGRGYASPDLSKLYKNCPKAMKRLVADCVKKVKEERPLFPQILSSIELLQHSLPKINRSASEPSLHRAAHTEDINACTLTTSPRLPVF

MiaPaca-2 cells = test: MiaPaca-2 Cell Proliferation Assay; format: cell-based; conditions: Homo sapiens, MIA PaCa-2
Protocol: MiaPaca-2 cells (catalog #CRL-1420) are obtained from the American Type Culture Collect (ATTC, Manassas, VA). Briefly, cells were grown in DMEM supplemented with 10% characterized fetal bovine serum (Invitrogen, Carlsbad, CA), 2.5% New Zealand sourced horse serum and 1% Penicillin/Streptomycin/L-Glutamine at 37° C., 5% CO2, and 95% humidity. Cells are expanded until reaching 70-95% confluency at which point they are sub-cultured or harvested for assay use. For assays completed in 96-well plates, a serial dilution of test compound is dispensed into a 96-well black clear bottom plate in triplicate. Three thousand cells are added per well in 200 μL complete growth medium in the 96-well plate. Plates are incubated for 67 to 72 h at 37° C., 5% CO2, and 95% humidity. At the end of the incubation, 40 μL of a […] solution of resazurin (Sigma, St. Louis, MO) in PBS is added to each well of the plate and plates are incubated for an additional 5 to 6 hours at 37° C., 5% CO2, and 95% humidity. For 384-well assays, a threefold, 8-point serial dilution of compound was spotted column wise into a 384 well black, clear bottom, tissue culture treated plate using the Beckman Coulter Echo 650. Likewise, a threefold, 8-point serial dilution of cobimetinib was spotted row wise into the 384 well black, clear bottom plate containing compound. DMSO concentration was constant across all wells at 0.4%. Seven hundred fifty cells are added per well in 50 μL complete growth medium in each 384-well plate. Plates are incubated for 67 to 72 h at 37° C., 5% CO2, and 95% humidity. At the end of the incubation, 10 μL of a 440 μM solution of resazurin (Sigma, St. Louis, MO) in PBS is added to each well of the plate and plates are incubated for an additional 4 to 6 h at 37° C., 5% CO2, and 95% humidity. Plates are read on a Synergy2 or equivalent reader (Biotek, Winooski VT) using an excitation of 540 nm and an emission of 600 nm. Data is analyzed using Prism software (Graphpad, San Diego, CA) to calculate IC50 values.

HCT-116 cells = test: HCT-116 Cell Proliferation Assay; format: cell-based; conditions: Homo sapiens
Protocol: HCT-116 cells (catalog #CCL-247) are obtained from the American Type Culture Collect (ATCC, Manassas, VA). Briefly, cells are grown in McCoy's 5A supplemented with 10% characterized fetal bovine serum (Invitrogen, Carlsbad, CA) and 1% Penicillin/Streptomycin/L-Glutamine at 37° C., 5% CO2, and 95% humidity. Cells are expanded until reaching 70-95% confluency at which point they are sub-cultured or harvested for assay use. A serial dilution of test compound is dispensed into a 384-well black clear bottom plate in triplicate. 375 cells are added per well in 50 μL complete growth medium in the 384-well plate. Plates are incubated for 67 to 72 h at 37° C., 5% CO2, and 95% humidity. At the end of the incubation, 40 μL of a […] solution of resazurin (Sigma, St. Louis, MO) in PBS is added to each well of the plate and plates are incubated for an additional 4 to 5 hours at 37° C., 5% CO2, and 95% humidity. Plates are read on a Synergy2 or equivalent reader (Biotek, Winooski, VT) using an excitation of 540 nm and an emission of 600 nm. Data is analyzed using Prism software (Graphpad, San Diego, CA) to calculate IC50 values.

HPAF-II cells = test: HPAF-II Cell Proliferation Assay; format: cell-based; conditions: Homo sapiens, HPAF-II; Table 4; read-out: HPAF-II IC50
Protocol: HPAF-II cells (catalog #CRL-1997) are obtained from the American Type Culture Collect (ATCC, Manassas, VA). Briefly, cells are grown in Minimum Essential Media supplemented with 10% characterized fetal bovine serum (Invitrogen, Carlsbad, CA) and 1% Penicillin/Streptomycin/L-Glutamine at 37° C., 5% CO2, and 95% humidity. Cells are expanded until reaching 70-95% confluency at which point they are sub-cultured or harvested for assay use. A serial dilution of test compound is dispensed into a 384-well black clear bottom plate in triplicate. 750 cells are added per well in 50 μL complete growth medium in the 384-well plate. Plates are incubated for 115 to 120 h at 37° C., 5% CO2, and 95% humidity. At the end of the incubation, 40 μL of a […] solution of resazurin (Sigma, St. Louis, MO) in PBS is added to each well of the plate and plates are incubated for an additional 18 to 24 h at 37° C., 5% CO2, and 95% humidity. Plates are read on a Synergy2 or equivalent reader (Biotek, Winooski, VT) using an excitation of 540 nm and an emission of 600 nm. Data is analyzed using Prism software (Graphpad, San Diego, CA) to calculate IC50 values.

[1] = Table 1, inhibition of biochemical activity, read-out: BRAF
[2] = Table 1, inhibition of biochemical activity, read-out: CRAF
[3] = Table 2, inhibition of cell proliferation, read-out: MiaPaca-2
[4] = Table 2, inhibition of cell proliferation, read-out: HCT-116

T1 sequence (P15056 416-766): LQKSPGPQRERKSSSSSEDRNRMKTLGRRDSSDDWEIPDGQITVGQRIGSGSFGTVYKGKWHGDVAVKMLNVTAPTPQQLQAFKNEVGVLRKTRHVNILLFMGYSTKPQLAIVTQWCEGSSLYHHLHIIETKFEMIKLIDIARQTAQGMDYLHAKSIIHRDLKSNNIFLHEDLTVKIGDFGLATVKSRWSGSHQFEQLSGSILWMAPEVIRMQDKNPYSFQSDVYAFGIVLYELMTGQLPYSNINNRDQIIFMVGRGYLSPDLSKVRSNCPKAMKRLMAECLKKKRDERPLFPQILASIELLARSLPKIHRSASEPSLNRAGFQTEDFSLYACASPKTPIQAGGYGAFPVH

SMILES | IC50 (B-Raf kinase; [1]) [nM] | IC50 (C-Raf kinase; [2]) [nM] | IC50 (MiaPaca-2 cells; [3]) [nM] | IC50 (HCT-116 cells; [4]) [nM] | further results
Cc1ncc(NC(=O)Nc2ccc(C(F)(F)F)nc2)cc1-c1cc(OCCO)nc(N2CCOCC2)c1 [Example 26] | 1000 to 10000 | < 100 | < 100 |  | 
Cc1ccc(NC(=O)Nc2ccc(C)c(-c3cc(OCCO)nc(N4CCOCC4)c3)c2)cn1 [Example 23, 1-(3-(2-(2-hydroxyethoxy)-6-morpholinopyridin-4-yl)-4-methylphenyl)-3-(6-methylpyridin-3-yl)urea] | 100 to 500 | < 100 | < 100 |  | 
COCC(=O)Nc1cc(-c2cncc(-c3cc(NC(=O)Nc4ccc(C(F)(F)F)nc4)ccc3C)n2)ccn1 [Example 13] | < 100 | < 100 | 500 to 1000 | 500 to 1000 | 
CNC(=O)c1cc(-c2cc(-c3cc(NC(=O)NC4CCCCC4)c(F)cc3C)cc(OCCO)n2)ccn1 [reference compound] |  |  |  |  | IC50 (HCT-116 cells; HCT-116, Table 4, read-out: HCT-116 IC50): 1000 to 10000 nM; IC50 (HPAF-II cells): 1000 to 10000 nM
CC(=O)Nc1cc(-c2cncc(-c3cc(NC(=O)Nc4ccc(C(F)(F)F)nc4)ccc3C)n2)ccn1 [Example 12] | < 100 | < 100 | 100 to 500 | 100 to 500 | 
Cc1ccc(NC(=O)Nc2ccc(C(F)(F)F)nc2)cc1-c1cncc(-c2cc(N)ncn2)c1 [Example 16] | < 100 | < 100 | 100 to 500 |  | 
Cc1ccc(NC(=O)Nc2cccnc2)cc1-c1cc(OCCO)nc(N2CCOCC2)c1 [Example 28] | 500 to 1000 | < 100 | 100 to 500 | 1000 to 10000 | 
CNC(=O)c1cc(-c2cncc(-c3cc(NC(=O)Nc4ccc(C(F)(F)F)nc4)ccc3C)c2)ncn1 [Example 21] | < 100 | < 100 | 100 to 500 |  | 
CC(=O)Nc1cc(-c2cc(-c3cc(NC(=O)Nc4ccc(C(F)(F)F)nc4)cnc3C)ccn2)ccn1 [Example 6] | < 100 | < 100 | 500 to 1000 | 1000 to 10000 | 
CC(=O)Nc1cc(-c2cc(-c3cc(NC(=O)Nc4ccc(C(F)(F)F)nc4)ccc3C)cc(OCCO)n2)ccn1 [Example 5] | < 100 | < 100 | < 100 |  | 
Cc1ccc(NC(=O)Nc2ccc(C(F)(F)F)nc2)cc1-c1cc(-c2ccnc(NC(=O)CN(C)C)c2)c(=O)n(C)c1 [Example 11] | 100 to 500 | 100 to 500 | 500 to 1000 | 500 to 1000 | 
Cc1ccc(NC(=O)Nc2ccc(C(F)(F)F)nc2)cc1-c1cc(OC2CCNCC2)nc(N2CCOCC2)c1 [Example 25, 1-(4-methyl-3-(2-morpholino-6-(piperidin-4-yloxy)pyridin-4-yl)phenyl)-3-(6-(trifluoromethyl)pyridin-3-yl)urea] | 100 to 500 | < 100 | 100 to 500 | 500 to 1000 | 
Cc1ccc(NC(=O)Nc2cnc(C(F)(F)F)nc2)cc1-c1cc(OCCO)nc(N2CCOCC2)c1 [Example 24, 1-(3-(2-(2-hydroxyethoxy)-6-morpholinopyridin-4-yl)-4-methylphenyl)-3-(2-(trifluoromethyl)pyrimidin-5-yl)urea] | 100 to 500 | < 100 | < 100 |  | IC50 (B-Raf kinase; Table 3, read-out: BRAF IC50): 100 to 500 nM; IC50 (C-Raf kinase; Table 3, read-out: CRAF IC50): 100 to 500 nM; IC50 (MiaPaca-2 cells; Table 3, read-out: MiaPaca-2 IC50): < 100 nM; IC50 (HCT-116 cells; HCT-116, Table 3, read-out: HCT-116 IC50): < 100 nM
CC(=O)Nc1cc(-c2cc(-c3cc(NC(=O)Nc4ccc(C(F)(F)F)nc4)ccc3C)nn(C)c2=O)ccn1 [Example 8] | 1000 to 10000 | 1000 to 10000 | 1000 to 10000 | 1000 to 10000 | 
CC(=O)Nc1cc(-c2cc(-c3cc(NC(=O)Nc4ccc(C(F)(F)F)nc4)ccc3C)cc(=O)n2C)ccn1 [Example 7] | < 100 | < 100 | 1000 to 10000 | 1000 to 10000 | 
Cc1ccc(NC(=O)Nc2ccc(C(F)(F)F)nc2)cc1-c1cncc(-c2ccnc(NC(=O)CC#N)c2)n1 [Example 14] | < 100 | < 100 | 1000 to 10000 | 1000 to 10000 | 
Cc1ccc(NC(=O)Nc2ccc(C(F)(F)F)nc2)cc1-c1cncc(-c2cc(NC(=O)C3CC3)ncn2)c1 [Example 15] | < 100 | < 100 | 500 to 1000 |  | 
COCC(=O)Nc1cc(-c2cc(-c3cc(NC(=O)Nc4ccc(C(F)(F)F)nc4)ccc3C)cn(C)c2=O)ccn1 [Example 3, 2-methoxy-N-(1-methyl-5-(2-methyl-5-(3-(6-(trifluoromethyl)pyridin-3-yl)ureido)phenyl)-2-oxo-1,2-dihydro-[3,4′-bipyridin]-2′-yl)acetamide] | 100 to 500 | < 100 | 100 to 500 |  | 
Cc1cc(F)c(NC(=O)Nc2ccc(C(F)(F)F)nc2)cc1-c1cc(OCCN(C)C)nc(N2CCOCC2)c1 [Example 27] | 500 to 1000 | 100 to 500 | 1000 to 10000 |  | 

Further lines, with some results ahead:

IC50 (B-Raf kinase; [1]) [nM] | IC50 (C-Raf kinase; [2]) [nM] | IC50 (MiaPaca-2 cells; [3]) [nM] | IC50 (HCT-116 cells; [4]) [nM] | SMILES | further results
100 to 500 | < 100 | < 100 |  | Cc1ccc(NC(=O)Nc2ccc(C(F)(F)F)nc2)cc1-c1cc(OCC2COC2)nc(N2CCOCC2)c1 [Example 33] | 
100 to 500 | < 100 | < 100 |  | Cc1ccc(NC(=O)Nc2ccc(C(F)(F)F)nc2)cc1-c1cc(OCCN(C)C)nc(N2CCOCC2)c1 [Example 30] | 
< 100 | < 100 | < 100 |  | Cc1ccc(NC(=O)Nc2ccc(C(F)(F)F)nc2)cc1-c1cc(N2CCOCC2)nc(N2CCOCC2)c1 [Example 32] | 
500 to 1000 | 100 to 500 | 100 to 500 |  | Cc1ccc(NC(=O)Nc2ccc(C(F)(F)F)nc2)cc1-c1cc(N2CCOCC2)nc(N2CCN(C)CC2)c1 [Example 31] | 
< 100 | < 100 | < 100 |  | Cc1ccc(NC(=O)Nc2ccc(C(F)(F)F)nc2)cc1-c1cc(OCCO)nc(-c2cn[nH]c2)c1 [Example 42] | 
100 to 500 | < 100 | < 100 | < 100 | Cc1ccc(NC(=O)Nc2ccc(C(F)(F)F)nc2)cc1-c1cc(OCCO)nc(N2CCOCC2)c1 [Example 37] | 
< 100 | < 100 | < 100 |  | Cc1ccc(NC(=O)Nc2ccc(C(F)(F)F)nc2)cc1-c1cc(-c2cnn(C)c2)nc(N2CCOCC2)c1 [Example 29] | 
1000 to 10000 | 1000 to 10000 |  |  | Cc1ccc(NC(=O)Nc2ccc(C(F)(F)F)nc2)cc1-c1cc(F)nc(N2CCOCC2)c1 [Example 35] | 
 |  | < 100 |  | Cc1ccc(NC(=O)Nc2ccc(C(F)F)nc2)cc1-c1cc(OCCO)nc(N2CCOCC2)c1 [Example 38] | 
